Assays:
Escherichia coli R^+TEM = assay: Agar dilution checkerboard growth test (Caseinpepton-Fleischextrakt-Bouillon-Agar, ~3x10^4 CFU/ml, 18 h, 37 °C); assay type: cell-based
Experimental: (§1) Ein Caseinpepton-Fleischextrakt-Bouillon-Agar mit einem Gehalt der angegebenen Menge der nachstehend angegebenen Substanzen A und B wird mit dem Testbakterium geimpft (~3x10^4CFU/ml). Nach der Inkubation während 18 Stunden bei 37 °C wird der Wuchszustand der Testbakterien untersucht. Die Ergebnisse sind in den Tabellen zusammengestellt. In jeder Tabelle bedeutet (+), daß das Testbakterium wächst, und (-) bedeutet, daß das Testbakterium nicht wächst. Man erkennt aus diesen Tabellen, daß die Kombination von D-α-[3-(2-p-Aminosulfonylanilino-4-hydroxy-5-pyrimidinyl)-ureido]-p-hydroxy-benzylpenicillin-Natrium = A bzw.

Kl. pneumoniae 1082 E = assay: as above; assay type: cell-based
Experimental: as §1

Measured: Wuchszustand der Testbakterien

CC1(C)S[C@@H]2[C@H](NC(=O)[C@H](NC(=O)Nc3cnc(Nc4ccc(S(N)(=O)=O)cc4)nc3O)c3ccc(O)cc3)C(=O)N2[C@H]1C(=O)O [Substanz A, D-α-[3-(2-p-Aminosulfonylanilino-4-hydroxy-5-pyrimidinyl)-ureido]-p-hydroxy-benzylpenicillin-Natrium]
+: Escherichia coli R^+TEM; C 0 µg/ml, A 0,5 µg/ml | Escherichia coli R^+TEM; C 0 µg/ml, A 1 µg/ml | Escherichia coli R^+TEM; C 0 µg/ml, A 2 µg/ml | Escherichia coli R^+TEM; C 0 µg/ml, A 4 µg/ml | Escherichia coli R^+TEM; C 0 µg/ml, A 8 µg/ml | Escherichia coli R^+TEM; C 0 µg/ml, A 16 µg/ml | Escherichia coli R^+TEM; C 0 µg/ml, A 32 µg/ml | Escherichia coli R^+TEM; C 0 µg/ml, A 64 µg/ml | Escherichia coli R^+TEM; C 0 µg/ml, A 128 µg/ml | Kl. pneumoniae 1082 E; C 0 µg/ml, A 0,5 µg/ml | Kl. pneumoniae 1082 E; C 0 µg/ml, A 0,25 µg/ml | Kl. pneumoniae 1082 E; C 0 µg/ml, A 1 µg/ml | Kl. pneumoniae 1082 E; C 0 µg/ml, A 2 µg/ml | Kl. pneumoniae 1082 E; C 0 µg/ml, A 4 µg/ml | Kl. pneumoniae 1082 E; C 0 µg/ml, A 8 µg/ml | Kl. pneumoniae 1082 E; C 0 µg/ml, A 16 µg/ml | Kl. pneumoniae 1082 E; C 0 µg/ml, A 32 µg/ml | Kl. pneumoniae 1082 E; C 0 µg/ml, A 64 µg/ml

Cn1nnnc1SCC1=C(C(=O)O)N2C(=O)[C@@H](NC(=O)[C@H](NC(=O)Nc3cnc(Nc4ccc(S(N)(=O)=O)cc4)nc3O)c3ccc(O)cc3)[C@H]2SC1 [Substanz B]
-: Escherichia coli R^+TEM; C 0 µg/ml, B 8 µg/ml
+: Escherichia coli R^+TEM; C 0 µg/ml, B 0,5 µg/ml | Escherichia coli R^+TEM; C 0 µg/ml, B 0,06 µg/ml | Escherichia coli R^+TEM; C 0 µg/ml, B 0,25 µg/ml | Escherichia coli R^+TEM; C 0 µg/ml, B 1 µg/ml | Escherichia coli R^+TEM; C 0 µg/ml, B 2 µg/ml | Escherichia coli R^+TEM; C 0 µg/ml, B 4 µg/ml | Escherichia coli R^+TEM; C 0 µg/ml, B 0,125 µg/ml | Kl. pneumoniae 1082 E; C 0 µg/ml, B 0,5 µg/ml | Kl. pneumoniae 1082 E; C 0 µg/ml, B 0,25 µg/ml | Kl. pneumoniae 1082 E; C 0 µg/ml, B 1 µg/ml | Kl. pneumoniae 1082 E; C 0 µg/ml, B 2 µg/ml | Kl. pneumoniae 1082 E; C 0 µg/ml, B 4 µg/ml | Kl. pneumoniae 1082 E; C 0 µg/ml, B 8 µg/ml | Kl. pneumoniae 1082 E; C 0 µg/ml, B 16 µg/ml | Kl. pneumoniae 1082 E; C 0 µg/ml, B 32 µg/ml | Kl. pneumoniae 1082 E; C 0 µg/ml, B 64 µg/ml

O=C(O)[C@H]1/C(=C/CO)O[C@@H]2CC(=O)N21 [Substanz C, Lithium-Z-(2R,5R)-3-(ß-hydroxyäthyliden)-7-oxo-4-oxa-1-aza-bicyclo[3,2,0]-heptan-2-carboxylat, reference compound]
-: Escherichia coli R^+TEM; C 32 µg/ml, A 0 µg/ml | Escherichia coli R^+TEM; C 32 µg/ml, B 0 µg/ml | Kl. pneumoniae 1082 E; C 64 µg/ml, A 0 µg/ml | Kl. pneumoniae 1082 E; C 64 µg/ml, B 0 µg/ml
+: Escherichia coli R^+TEM; C 0,5 µg/ml, B 0 µg/ml | Escherichia coli R^+TEM; C 0,25 µg/ml, B 0 µg/ml | Escherichia coli R^+TEM; C 1 µg/ml, A 0 µg/ml | Escherichia coli R^+TEM; C 1 µg/ml, B 0 µg/ml | Escherichia coli R^+TEM; C 2 µg/ml, A 0 µg/ml | Escherichia coli R^+TEM; C 2 µg/ml, B 0 µg/ml | Escherichia coli R^+TEM; C 4 µg/ml, A 0 µg/ml | Escherichia coli R^+TEM; C 4 µg/ml, B 0 µg/ml | Escherichia coli R^+TEM; C 8 µg/ml, A 0 µg/ml | Escherichia coli R^+TEM; C 8 µg/ml, B 0 µg/ml | Escherichia coli R^+TEM; C 16 µg/ml, A 0 µg/ml | Escherichia coli R^+TEM; C 16 µg/ml, B 0 µg/ml | Kl. pneumoniae 1082 E; C 1 µg/ml, A 0 µg/ml | Kl. pneumoniae 1082 E; C 1 µg/ml, B 0 µg/ml | Kl. pneumoniae 1082 E; C 2 µg/ml, A 0 µg/ml | Kl. pneumoniae 1082 E; C 2 µg/ml, B 0 µg/ml | Kl. pneumoniae 1082 E; C 4 µg/ml, A 0 µg/ml | Kl. pneumoniae 1082 E; C 4 µg/ml, B 0 µg/ml | Kl. pneumoniae 1082 E; C 8 µg/ml, A 0 µg/ml | Kl. pneumoniae 1082 E; C 8 µg/ml, B 0 µg/ml | Kl. pneumoniae 1082 E; C 16 µg/ml, A 0 µg/ml | Kl. pneumoniae 1082 E; C 16 µg/ml, B 0 µg/ml | Kl. pneumoniae 1082 E; C 32 µg/ml, A 0 µg/ml | Kl. pneumoniae 1082 E; C 32 µg/ml, B 0 µg/ml

— patent publication EP0050253A1, “Antibiotic pharmaceutical composition” (priority 1980, dated 1982)
